Results published in patent US20100056560A1, “USE FOR TREATING OBESITY AND DIABETES” (priority 2006, published 2010).

Test system: adiponectin
Assay: Expression of adiponectin in 3T3-L1 adipocytes (Western blot)
Assay type: cell-based, Mouse
Settings: 3T3-L1, 100 μM isoflavone, 1 mM L-carnitine, 1 mM L-arginine, 100 ppm caffeine, 24 hours
Procedure: Mouse undifferentiated 3T3-L1 adipocytes) (purchased from ATCC) were cultured in 10% calf serum-containing DMEM (Dulbecco's modified Eagle's medium, Gibco 1210-0038) in a 10% CO2 incubator to a confluency of 70% while replacing the medium with a fresh medium at 2-day intervals. For differentiation into adipocytes, the cells were cultured in a medium (containing 10% fetal bovine serum, 0.5 mM 3-isobutyl-1-methyxanthine (Sigma), 1 μM dexamethasone (Sigma) and 167 nM insulin (Novo-Nordisk)) for 48 hours, and then the medium was replaced with a DMEM medium (containing 10% fetal bovine serum and 167 nM insulin), in which the cells were further cultured for 48 hours. Finally, the cells were further cultured in a medium (containing only 10% fetal bovine serum) for 48 hours, thus obtaining differentiated adipocytes.
The adipocytes, differentiated in the step 1, were cultured in a medium, containing 51 fatty acid-free calf serum, for 16 hours. On the next day, the cultured cells were washed three times with PBS, and then treated with each of 100 μM isoflavone, 1 mM L-carnitine, 1 mM L-arginine, 100 ppm caffeine and a mixture of 100 μM isoflavone+1 mM L-carnitine+1 mM L-arginine+100 ppm caffeine. After 24 hours of cell incubation, a protein was isolated from each of the media and subjected to Western blot analysis in order to examine a change in the expression of adiponectin.

## Cn1c(=O)c2c(ncn2C)n(C)c1=O [caffeine]
  expression of adiponectin: decrease in the expression of adiponectin
